# Results published in ChEMBL document CHEMBL1201862, “PubChem BioAssay data set” (2004).
#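 Step 1: Grow cells in 96-well plates. Step 2: Expose to compound for 48 hours at 5 concentrations. Step 3: Interpolate endpoints linearly; if unreached, use highest concentration. Abbreviation: GI50, concentration required for 50% inhibition of growth.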 Calls of active or inactive are those of the source. No stated cut-off is given here; in the data, active = GI50 up to about 1.1 µM and inactive = higher.
# Columns and labels:
# Test in all cases: growth of human tumour cells (NCI), 48 h
# [1] = test system: 786-0
# [2] = test system: A498
# [3] = test system: A549
# [4] = test system: ACHN
# [5] = test system: BT-549
# [6] = test system: CAKI-1
# [7] = test system: CCRF-CEM
# [8] = test system: COLO 205
# [9] = test system: DU-145
# [10] = test system: EKVX
# [11] = test system: HCC 2998
# [12] = test system: HCT-116
# [13] = test system: HCT-15
# [14] = test system: HL-60
# [15] = test system: HOP-62
# [16] = test system: HT-29
# [17] = test system: Hs-578T
# [18] = test system: IGROV-1
# [19] = test system: K562
# [20] = test system: KM12
# [21] = test system: LOX IMVI
# [22] = test system: M14
# [23] = test system: MCF7
# [24] = test system: MDA-MB-435
# [25] = test system: MOLT-4
# [26] = test system: Malme-3M
# [27] = test system: NCI-H23
# [28] = test system: NCI-H460
# [29] = test system: NCI-H522
# [30] = test system: NCI/ADR-RES
# [31] = test system: OVCAR-3
# [32] = test system: OVCAR-4
# [33] = test system: OVCAR-5
# [34] = test system: OVCAR-8
# [35] = test system: PC-3
# [36] = test system: RPMI-8226
# [37] = test system: SF-268
# [38] = test system: SF-295
# [39] = test system: SF-539
# [40] = test system: SK-MEL-28
# [41] = test system: SK-MEL-2
# [42] = test system: SK-MEL-5
# [43] = test system: SK-OV-3
# [44] = test system: SNB-19
# [45] = test system: SR
# [46] = test system: SW-620
# [47] = test system: T47D
# [48] = test system: U-251
# [49] = test system: UACC-257
# [50] = test system: UACC-62
# [51] = test system: UO-31
compound,measurement,setting,value
CCN(CC)Cc1ccc(C(=S)Nc2ccc(C)cc2)s1,GI50,[1],15.5 µM (inactive)
same,GI50,[2],13.3 µM (inactive)
same,GI50,[3],16.6 µM (inactive)
same,GI50,[4],16 µM (inactive)
same,GI50,[5],20.3 µM (inactive)
same,GI50,[6],15 µM (inactive)
same,GI50,[7],8.83 µM (inactive)
same,GI50,[8],16 µM (inactive)
same,GI50,[9],20.5 µM (inactive)
same,GI50,[10],16.2 µM (inactive)
same,GI50,[11],12.9 µM (inactive)
same,GI50,[12],15.1 µM (inactive)
same,GI50,[13],16.4 µM
same,GI50,[14],9.66 µM (inactive)
same,GI50,[15],17.5 µM (inactive)
same,GI50,[16],4.08 µM (inactive)
same,GI50,[17],1.84 µM (inactive)
same,GI50,[18],10.9 µM (inactive)
same,GI50,[19],6.59 µM (inactive)
same,GI50,[20],15.3 µM (inactive)
same,GI50,[21],16 µM (inactive)
same,GI50,[22],15.1 µM (inactive)
same,GI50,[23],12.3 µM (inactive)
same,GI50,[24],12.2 µM (inactive)
same,GI50,[25],13 µM (inactive)
same,GI50,[26],16.5 µM (inactive)
same,GI50,[27],8.09 µM (inactive)
same,GI50,[28],15.4 µM (inactive)
same,GI50,[29],14.6 µM (inactive)
same,GI50,[30],19.2 µM (inactive)
same,GI50,[31],21.2 µM (inactive)
same,GI50,[32],21.6 µM (inactive)
same,GI50,[33],14.8 µM (inactive)
same,GI50,[34],14.8 µM (inactive)
same,GI50,[35],14.3 µM (inactive)
same,GI50,[36],14.7 µM (inactive)
same,GI50,[37],1.25 µM (inactive)
same,GI50,[38],13.8 µM (inactive)
same,GI50,[39],20.4 µM (inactive)
same,GI50,[40],15 µM (inactive)
same,GI50,[41],15.7 µM (inactive)
same,GI50,[42],13.4 µM (inactive)
same,GI50,[43],15.6 µM (inactive)
same,GI50,[44],19 µM (inactive)
same,GI50,[45],12.1 µM (inactive)
same,GI50,[46],20.2 µM (inactive)
same,GI50,[47],15.9 µM (inactive)
same,GI50,[48],14.7 µM (inactive)
same,GI50,[49],11.4 µM (inactive)
same,GI50,[50],14.2 µM (inactive)
same,GI50,[51],15.5 µM (inactive)
